In publication PMC10222270, “Natural Product-Based Screening for Lead Compounds Targeting SARS CoV-2 M^pro” (Pharmaceuticals, 2023):
Values joined by “and” are separate entries in the source; they are usually repeats but may differ in a detail not shown here. Identical values can stand only once. Counter-ions that a name gives are not always drawn. Like-named read-outs stand apart in the source and are kept apart here.

Assays:
SARS CoV-2 M^pro [1] = biological target: T1, SARS CoV-2 M^pro (Severe acute respiratory syndrome coronavirus 2, UniProt P0DTD1); experiment: Surface plasmon resonance (SPR) binding to biotinylated M^pro; conditions: for binding trend to M^pro: SPR, single concentration 200 μM
T1 construct: The main protease (M^pro) is a part of the polyprotein chain, also named 3C-like protease; SUMO (cleaved yes); His; made in house; host or cells: Escherichia coli BL21(DE3)

SARS CoV-2 M^pro [2] = biological target: T1, SARS CoV-2 M^pro; experiment: biochemical; assay type: biochemical; conditions: for inhibition at 80 µM: read-out: Inhibition%(80μM)
SARS CoV-2 M^pro [3] = biological target: T1, SARS CoV-2 M^pro; experiment: nanoDSF thermal shift assay (TSA); assay type: binding; conditions: for △T: versus M^pro+DMSO; for Kd: x-intercept of linear regression of ΔTm on log10 of compound concentration, read-out: Kobs
[4] = 0.02%(v/v) Triton X−100 in buffer
[5] = 80 μM compound, second value column of Table S2

Molecule	Inhibition%(80μM) (SARS CoV-2 M^pro [2])	inhibition at 80 µM (SARS CoV-2 M^pro [2]) [%]	other results
COc1cc2ccc(=O)oc2c(O)c1O [fraxetin, Fraxetin]	97.85% and 96.97%	96.8	binding trend to M^pro (SARS CoV-2 M^pro [1]): no binding trends; IC50 (SARS CoV-2 M^pro [2]; [4]): 1300 ± 208 nM; IC50 (SARS CoV-2 M^pro [2]; Without Triton X−100): 2490 ± 178 nM
COc1cc(C(=S)N2CCOCC2)ccc1O [vanitiolide, Vanitiolide]	99.16% and 98.95%	99.1	binding trend to M^pro (SARS CoV-2 M^pro [1]): no binding trends; IC50 (SARS CoV-2 M^pro [2]; [4]): 1420 ± 76 nM; IC50 (SARS CoV-2 M^pro [2]; Without Triton X−100): 2840 ± 225 nM
CCCCCC/C=C\CCCCCCCc1cccc(O)c1C(=O)O [ginkgolic acid C15:1, Ginkgolic Acid C15:1]	107.06%	104	Kd (SARS CoV-2 M^pro [1]; SPR multi-cycle mode, steady-state affinity, PBST, 7% DMSO): 227000 nM; IC50 (SARS CoV-2 M^pro [2]; Without Triton X−100): 9350 ± 531 nM
CCCCCCCC/C=C\CCCCCCCCCCCCCC(=O)O [Nervonic Acid]	89.75% and 93.14%	93.6	–
O=P(O)(O)O[C@H]1[C@H](OP(=O)(O)O)[C@@H](OP(=O)(O)O)[C@H](OP(=O)(O)O)[C@@H](OP(=O)(O)O)[C@H]1OP(=O)(O)O [Phytic Acid]	97.45% and 98.02%	97.6	–
CC(=O)OCCc1ccc(O)c(O)c1 [hydroxytyrosol acetate, Hydroxytyrosol Acetate]	103.09% and 102.91%	103	binding trend to M^pro (SARS CoV-2 M^pro [1]): no binding trends; IC50 (SARS CoV-2 M^pro [2]; [4]): 3780 ± 453 nM; IC50 (SARS CoV-2 M^pro [2]; Without Triton X−100): 3850 ± 576 nM
CC(C)=CCC(O)C1=CC(=O)c2c(O)ccc(O)c2C1=O (racemic) [(±)-Shikonin]	95.04% and 93.71%	87.6	–
CC(C)c1cc2c(c(O)c1O)[C@@]13CCCC(C)(C)[C@@H]1C[C@@H]2OC3=O [Carnosol]	73.35% and 80.59%	74.5	–
CC(C)CCCC(C)C1CCC2C3CC=C4CC(OS(=O)(=O)O)CCC4(C)C3CCC12C (stereo not drawn) [cholesteryl sodium sulfate, Cholesteryl sodium sulfate]	100.30% and 100.48%	100	Tm of M^pro (SARS CoV-2 M^pro [3]; compound 3.125 μM): 55.0 °C; △T (SARS CoV-2 M^pro [3]; compound 3.125 μM): 0.1 °C; Tm of M^pro (SARS CoV-2 M^pro [3]; compound 50 μM): 54.1 °C; △T (SARS CoV-2 M^pro [3]; compound 50 μM): -0.8 °C; Tm of M^pro (SARS CoV-2 M^pro [3]; compound 200 μM): 48.9 °C; △T (SARS CoV-2 M^pro [3]; compound 200 μM): -6.0 °C; Kd (SARS CoV-2 M^pro [3]): 7600 nM; IC50 (SARS CoV-2 M^pro [2]; Without Triton X−100): 2740 ± 234 nM
COc1cc(O)c2c(c1)oc(=O)c1c3cc(O)c(O)cc3oc21 [wedelolactone, Wedelolactone]	101.88% and 102.36%	102	Tm of M^pro (SARS CoV-2 M^pro [3]; compound 3.125 μM): 55.2 °C; △T (SARS CoV-2 M^pro [3]; compound 3.125 μM): 0.3 °C; Tm of M^pro (SARS CoV-2 M^pro [3]; compound 50 μM): 55.8 °C; △T (SARS CoV-2 M^pro [3]; compound 50 μM): 0.9 °C; Tm of M^pro (SARS CoV-2 M^pro [3]; compound 200 μM): 56.1 °C; △T (SARS CoV-2 M^pro [3]; compound 200 μM): 1.2 °C; Kd (SARS CoV-2 M^pro [3]): 977 nM; IC50 (SARS CoV-2 M^pro [2]; [4]): 2510 ± 276 nM; IC50 (SARS CoV-2 M^pro [2]; Without Triton X−100): 1000 ± 238 nM
CCCCCC/C=C\CCCCCCCCCc1cccc(O)c1C(=O)O [Ginkgolic Acid C17:1]	100.63% and 101.61%	102	–
COC(=O)[C@@H](Cc1ccc(O)c(O)c1)OC(=O)[C@@H]1c2c(/C=C/C(=O)O[C@H](Cc3ccc(O)c(O)c3)C(=O)O)ccc(O)c2O[C@H]1c1ccc(O)c(O)c1 [9'-Methyl Lithospermate B]	72.67% and 74.36%	73.6	–
CC(=O)O[C@H]1[C@H](OCCc2ccc(O)c(O)c2)O[C@H](CO)[C@@H](OC(=O)/C=C/c2ccc(O)c(O)c2)[C@@H]1O[C@@H]1O[C@@H](C)[C@H](O)[C@@H](O)[C@H]1O [2'-Acetylacteoside]	93.37% and 90.77%	90.6	–
Cc1cc(=O)oc2cc(O)c(O)cc12 [4-Methylesculetin]	77.57%	79.1	inhibition at 80 µM (SARS CoV-2 M^pro [2]; [5]): 79.9%
O=c1cc(-c2ccccc2)oc2cc(O)c(O)c(O)c12 [baicalein, Baicalein, reference compound]	–	–	Tm of M^pro (SARS CoV-2 M^pro [3]; compound 3.125 μM): 55.2 °C; △T (SARS CoV-2 M^pro [3]; compound 3.125 μM): 0.3 °C; Tm of M^pro (SARS CoV-2 M^pro [3]; compound 50 μM): 56.6 °C; △T (SARS CoV-2 M^pro [3]; compound 50 μM): 1.7 °C; Tm of M^pro (SARS CoV-2 M^pro [3]; compound 200 μM): 57.0 °C; △T (SARS CoV-2 M^pro [3]; compound 200 μM): 2.1 °C; inhibition at 80 µM (SARS CoV-2 M^pro [2]; 80 μM compound, first value column of Table S2): 99.9%; inhibition at 80 µM (SARS CoV-2 M^pro [2]; [5]): 101%; inhibition at 80 µM (SARS CoV-2 M^pro [2]; 80 μM compound, third value column of Table S2): 98.7%
CCCCCCCC/C=C\CCCCCCCCC(=O)O [10Z-Nonadecenoic acid]	126.52% and 101.02% and 101.53%	–	–

Molecule	Inhibition%(80μM) (SARS CoV-2 M^pro [2])	inhibition at 80 µM (SARS CoV-2 M^pro [2]) [%]	other results
C[C@@H]1CC[C@]2(C(=O)O)CC[C@]3(C)C(=CC[C@@H]4[C@@]5(C)CC[C@H](O[C@@H]6OC[C@H](O)[C@H](O)[C@H]6O)C(C)(C)[C@@H]5CC[C@]43C)[C@@H]2[C@]1(C)O [Ziyuglycoside II]	70.21% and 74.61% and 47.27%	–	–
Cc1c(=O)c(=O)c2c3c[nH]c4c(C)c(=O)c(=O)c(c5c[nH]c1c52)c43 [melanin, Melanin]	96.84% and 96.92%	95.8	Tm of M^pro (SARS CoV-2 M^pro [3]; compound 3.125 μM): 55.0 °C; △T (SARS CoV-2 M^pro [3]; compound 3.125 μM): 0.1 °C; Tm of M^pro (SARS CoV-2 M^pro [3]; compound 50 μM): 54.9 °C; △T (SARS CoV-2 M^pro [3]; compound 50 μM): 0.0 °C; Tm of M^pro (SARS CoV-2 M^pro [3]; compound 200 μM): 54.4 °C; △T (SARS CoV-2 M^pro [3]; compound 200 μM): -0.5 °C; Kd (SARS CoV-2 M^pro [3]): 11600 nM; IC50 (SARS CoV-2 M^pro [2]; Without Triton X−100): 7370 ± 368 nM
CC(C)=CC[C@H](OC(=O)C=C(C)C)C1=CC(=O)c2c(O)ccc(O)c2C1=O [β,β–dimethylacrylalkannin, β,β-Dimethylacrylalkannin]	99.09% and 97.96%	100	Tm of M^pro (SARS CoV-2 M^pro [3]; compound 50 μM): 57.7 °C; △T (SARS CoV-2 M^pro [3]; compound 50 μM): 2.8 °C; Tm of M^pro (SARS CoV-2 M^pro [3]; compound 200 μM): 58.3 °C; △T (SARS CoV-2 M^pro [3]; compound 200 μM): 3.4 °C; Kd (SARS CoV-2 M^pro [3]): 1900 nM; IC50 (SARS CoV-2 M^pro [2]; [4]): 2890 ± 185 nM; IC50 (SARS CoV-2 M^pro [2]; Without Triton X−100): 2730 ± 308 nM
O=C(O[C@@H]1Cc2c(O)cc(O)cc2O[C@H]1c1cc(O)c(O)c(O)c1)c1cc(O)c(O)c(O)c1 [(−)–gallocatechin gallate, (-)-Gallocatechin Gallate]	102.08% and 101.74%	101	–
Oc1cc2c(cc1O)[C@@H]1c3ccc(O)c(O)c3OC[C@]1(O)C2 [hematoxylin, Hematoxylin]	103.56% and 103.03%	104	–
COc1ccc2c(c[n+](C)c3c4cc5c(cc4ccc23)OCO5)c1OC [Chelerythrine]	98.97% and 99.51%	99.4	–
O=C(O)CCc1ccc(O)c(O)c1 [Hydrocaffeic Acid]	90.29% and 90.08%	88.3	–
Maleimide	103.98% and 104.37% and 103.27%	–	–
CCCCC/C=C\C/C=C\C/C=C\C/C=C\CCCC(=O)O [Arachidonic Acid]	76.72% and 73.70%	82.2	–
C[C@@H]1O[C@@H](OC[C@H]2O[C@@H](OCCc3ccc(O)c(O)c3)[C@H](O)[C@@H](OC(=O)/C=C/c3ccc(O)c(O)c3)[C@@H]2O)[C@H](O)[C@H](O)[C@H]1O [Isoforsythiaside]	100.44% and 101.30%	100	–
Tubuloside A	87.62% and 90.37% and 86.87%	–	–
C[n+]1cc2c3c(ccc2c2ccc4cc5c(cc4c21)OCO5)OCO3 [Sanguinarine chloride]	108.15%	108	–
Cc1ccc(O)c(O)c1 [4-Methylcatechol]	102.51% and 102.92%	103	–
COc1ccc2c(c[n+](C)c3c4cc5c(cc4ccc23)OCO5)c1OC [Chelerythrine chloride]	98.66% and 98.31% and 98.46%	–	–
CCCCCCCC/C=C/CCCCCCCC(=O)O [Elaidic Acid]	79.40% and 87.31%	74.9	–
